Converted amounts (≈) assume the structure as drawn.

A short description of data set [1]: aqueous room temperature solubility. Type of data set: physicochemical. To be noted: for solubility: water, aqueous, room temperature. The method, then: (§1) The aqueous room temperature solubilities of Compounds A and Compound B is 6.9 μg/mL and 2.0 μg/mL, respectively. Daily doses of Compound A ranging from 10 mg to 100 mg per day have been administered to approximately 1000 subject in clinical studies to date. […] Therefore a controlled release dosage is clearly needed for Compound A.

Data set [2] can be described thus: pharmacokinetic parameters of Compound A in monkeys. To be noted: monkey, in vivo, 10 mg/kg PO. The method, then:
as §1

Broadly, the solubility is the dissolved amount per volume that the medium holds. For orientation: half-life means the time needed for the level to fall by half in the phase considered. Low readings indicate rapid decline, high ones slow decline. Turning to `CCOc1cc([C@@H](CS(C)(=O)=O)N2C(=O)c3cccc(NC(C)=O)c3C2=O)ccc1OC` [Compound A, (S)—N-{2-[1-(3-ethoxy-4-methoxy-phenyl)-2-methanesulfonylethyl]-1,3-dioxo-2,3-dihydro-1H-isoindol-4-yl}acetamide], the “aqueous solubility of amorphous form compared to crystalline forms” value in data set [1] (amorphous form vs crystalline forms) is “greater aqueous solubility”. In addition, the solubility in data set [1] came out at 6.9 µg/mL (≈ 15 µM). In addition, the half-life in data set [2] is roughly 2 h.

In the case of `CCOc1cc([C@@H](CS(C)(=O)=O)N2Cc3cccc(NC(=O)C4CC4)c3C2=O)ccc1OC` [Compound B, cyclopropanecarboxylic acid {2-[(1S)-1-(3-ethoxy-4-methoxy-phenyl)-2-methanesulfonyl-ethyl]-3-oxo-2,3-dihydro-1H-isoindol-4-yl}-amide], the solubility in data set [1] is 2 µg/mL (≈ 4.23 µM).

Source of the values: patent US9532977B2, “Controlled release oral dosage forms of poorly soluble drugs and uses thereof” (Celgene Corporation, priority 2010, dated 2017).
